Test results reported in PubChem BioAssay (NCI).
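The compound was tested at five concentrations on cells cultured in 96-well plates, with a 48-hour exposure period. TGI marks complete inhibition of growth.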

Assays:
Assay in all cases: inhibition of tumour cell growth, NCI panel, 48 h
[1] = tested on: 786-0 renal
[2] = tested on: A498 renal
[3] = tested on: A549 NSCLC
[4] = tested on: ACHN renal
[5] = tested on: BT-549 breast
[6] = tested on: CAKI-1 renal
[7] = tested on: CCRF-CEM leukemia
[8] = tested on: COLO 205 colon
[9] = tested on: DU-145 prostate
[10] = tested on: EKVX NSCLC
[11] = tested on: HCC-2998 colon
[12] = tested on: HCT-116 colon
[13] = tested on: HCT-15 colon
[14] = tested on: HOP-62 NSCLC
[15] = tested on: HOP-92 NSCLC
[16] = tested on: HS 578T breast
[17] = tested on: HT29 colon
[18] = tested on: IGROV1 ovarian
[19] = tested on: K-562 leukemia
[20] = tested on: KM12 colon
[21] = tested on: LOX IMVI melanoma
[22] = tested on: M14 melanoma
[23] = tested on: MALME-3M melanoma
[24] = tested on: MCF7 breast
[25] = tested on: MDA-MB-231 breast
[26] = tested on: MDA-MB-435
[27] = tested on: MDA-N
[28] = tested on: MOLT-4 leukemia
[29] = tested on: NCI-H226 lung
[30] = tested on: NCI-H23 lung
[31] = tested on: NCI-H460 lung
[32] = tested on: NCI-H522 lung
[33] = tested on: NCI/ADR-RES ovarian
[34] = tested on: OVCAR-3 ovarian
[35] = tested on: OVCAR-4 ovarian
[36] = tested on: OVCAR-5 ovarian
[37] = tested on: OVCAR-8 ovarian
[38] = tested on: PC-3 prostate
[39] = tested on: RPMI-8226 leukemia
[40] = tested on: RXF 393 renal
[41] = tested on: SF-268 CNS
[42] = tested on: SF-295 CNS
[43] = tested on: SF-539 CNS
[44] = tested on: SK-MEL-2 melanoma
[45] = tested on: SK-MEL-5 melanoma
[46] = tested on: SK-OV-3 ovarian
[47] = tested on: SN12C renal
[48] = tested on: SNB-19 CNS
[49] = tested on: SNB-75 CNS
[50] = tested on: SW-620 colon
[51] = tested on: T-47D breast
[52] = tested on: TK-10 renal
[53] = tested on: U251 CNS
[54] = tested on: UACC-257 melanoma
[55] = tested on: UACC-62 melanoma
[56] = tested on: UO-31 renal
[57] = tested on: HL-60(TB) leukemia
[58] = tested on: SK-MEL-28 melanoma

O=C1C=CC(=O)C(CNc2ccc(C(=O)OC34CC5CC(CC(C5)C3)C4)cc2)=C1Br
TGI [1]: 28.3 µM
TGI [2]: 33.1 µM
TGI [3]: 49.3 µM
TGI [4]: 28.4 µM
TGI [5]: 20.5 µM
TGI [6]: 12.5 µM
TGI [7]: 7.41 µM
TGI [8]: 24.1 µM
TGI [9]: 94.8 µM
TGI [10]: 20.5 µM
TGI [11]: 28.3 µM
TGI [12]: 27.1 µM
TGI [13]: 21.4 µM
TGI [14]: 62.2 µM
TGI [15]: 12.3 µM
TGI [16]: 27.2 µM
TGI [17]: 16.8 µM
TGI [18]: 15.6 µM
TGI [19]: 32.7 µM
TGI [20]: 19.7 µM
TGI [21]: 23.4 µM
TGI [22]: 60 µM
TGI [23]: 15.5 µM
TGI [24]: 48.1 µM
TGI [25]: 24.3 µM
TGI [26]: 65.5 µM
TGI [27]: 33 µM
TGI [28]: 25.5 µM
TGI [29]: 32.4 µM
TGI [30]: 23.9 µM
TGI [31]: 29.4 µM
TGI [32]: 1.44 µM
TGI [33]: 18.4 µM
TGI [34]: 39.4 µM
TGI [35]: 22.6 µM
TGI [36]: 38 µM
TGI [37]: 23.9 µM
TGI [38]: 19 µM
TGI [39]: 33.4 µM
TGI [40]: 17.5 µM
TGI [41]: 27.4 µM
TGI [42]: 33.5 µM
TGI [43]: 5.6 µM
TGI [44]: 38.2 µM
TGI [45]: 22 µM
TGI [46]: 34.2 µM
TGI [47]: 34.1 µM
TGI [48]: 35.4 µM
TGI [49]: 19.7 µM
TGI [50]: 68.1 µM
TGI [51]: 18.5 µM
TGI [52]: 28.6 µM
TGI [53]: 38.2 µM
TGI [54]: 29.1 µM
TGI [55]: 21.6 µM
TGI [56]: 21.2 µM

O=C(C1OC1c1ccc(F)cc1)C12CC3CC(CC(C3)C1)C2 (configuration not stated)
TGI [1]: 36.5 µM
TGI [2]: 58 µM
TGI [3]: 59.7 µM
TGI [4]: 85 µM
TGI [5]: 67.3 µM
TGI [6]: 57 µM
TGI [7]: 37 µM
TGI [8]: 30.9 µM
TGI [9]: > 100 µM
TGI [10]: 45.1 µM
TGI [11]: 36.8 µM
TGI [12]: 20.1 µM
TGI [13]: 56.7 µM
TGI [57]: 31.1 µM
TGI [14]: 70.8 µM
TGI [15]: 52.7 µM
TGI [16]: 60.1 µM
TGI [17]: 45.4 µM
TGI [18]: 59.8 µM
TGI [19]: 37.2 µM
TGI [20]: 46.8 µM
TGI [21]: 12.3 µM
TGI [22]: 31.4 µM
TGI [23]: 78.6 µM
TGI [24]: 95.4 µM
TGI [25]: 52.8 µM
TGI [26]: 26.2 µM
TGI [27]: 32.5 µM
TGI [28]: 35.3 µM
TGI [29]: 46.6 µM
TGI [30]: 43.4 µM
TGI [31]: 31.1 µM
TGI [32]: 38.2 µM
TGI [33]: 48.1 µM
TGI [34]: 33.5 µM
TGI [35]: 40.2 µM
TGI [36]: 54.7 µM
TGI [37]: 29 µM
TGI [38]: > 100 µM
TGI [40]: 32.7 µM
TGI [41]: 61.2 µM
TGI [42]: 79.1 µM
TGI [43]: 45.7 µM
TGI [44]: 30.6 µM
TGI [58]: 59 µM
TGI [45]: 30.7 µM
TGI [46]: 70.3 µM
TGI [47]: 44.4 µM
TGI [48]: > 100 µM
TGI [49]: > 100 µM
TGI [50]: 44.2 µM
TGI [51]: > 100 µM
TGI [52]: > 100 µM
TGI [53]: 24.5 µM
TGI [54]: 86.6 µM
TGI [55]: 38.7 µM
TGI [56]: 51.5 µM

OC1CCCN(C2(c3cccs3)CCCCC2)C1 (configuration not stated)
TGI [1]: > 100 µM
TGI [2]: > 100 µM
TGI [4]: > 100 µM
TGI [5]: > 100 µM
TGI [6]: > 100 µM
TGI [8]: > 100 µM
TGI [9]: > 100 µM
TGI [10]: > 100 µM
TGI [11]: > 100 µM
TGI [12]: > 100 µM
TGI [13]: > 100 µM
TGI [57]: > 100 µM
TGI [14]: > 100 µM
TGI [15]: > 100 µM
TGI [16]: > 100 µM
TGI [17]: > 100 µM
TGI [18]: > 100 µM
TGI [19]: > 100 µM
TGI [20]: > 100 µM
TGI [21]: > 100 µM
TGI [23]: > 100 µM
TGI [24]: > 100 µM
TGI [25]: > 100 µM
TGI [26]: > 100 µM
TGI [27]: > 100 µM
TGI [28]: > 100 µM
TGI [30]: > 100 µM
TGI [31]: > 100 µM
TGI [32]: > 100 µM
TGI [33]: > 100 µM
TGI [34]: > 100 µM
TGI [35]: > 100 µM
TGI [36]: > 100 µM
TGI [37]: > 100 µM
TGI [38]: > 100 µM
TGI [39]: > 100 µM
TGI [40]: > 100 µM
TGI [41]: > 100 µM
TGI [42]: > 100 µM
TGI [44]: > 100 µM
TGI [58]: > 100 µM
TGI [45]: > 100 µM
TGI [46]: > 100 µM
TGI [47]: > 100 µM
TGI [49]: > 100 µM
TGI [50]: > 100 µM
TGI [51]: > 100 µM
TGI [52]: > 100 µM
TGI [53]: > 100 µM
TGI [54]: > 100 µM
TGI [55]: > 100 µM

CCOC(=O)[C@H]1O[C@@H]1C(=O)NC(CC(C)C)C(=O)NCCC(C)C (some centres not stated)
TGI [1]: > 100 µM
TGI [2]: > 100 µM
TGI [3]: > 100 µM
TGI [5]: > 100 µM
TGI [6]: > 100 µM
TGI [7]: > 100 µM
TGI [8]: > 100 µM
TGI [9]: > 100 µM
TGI [10]: > 100 µM
TGI [11]: > 100 µM
TGI [12]: > 100 µM
TGI [13]: > 100 µM
TGI [14]: > 100 µM
TGI [15]: > 100 µM
TGI [16]: > 100 µM
TGI [17]: > 100 µM
TGI [18]: > 100 µM
TGI [19]: > 100 µM
TGI [20]: > 100 µM
TGI [22]: > 100 µM
TGI [23]: > 100 µM
TGI [24]: > 100 µM
TGI [25]: > 100 µM
TGI [26]: > 100 µM
TGI [27]: > 100 µM
TGI [28]: > 100 µM
TGI [29]: > 100 µM
TGI [30]: > 100 µM
TGI [31]: > 100 µM
TGI [32]: > 100 µM
TGI [33]: > 100 µM
TGI [34]: > 100 µM
TGI [35]: > 100 µM
TGI [36]: > 100 µM
TGI [37]: > 100 µM
TGI [38]: > 100 µM
TGI [39]: > 100 µM
TGI [41]: > 100 µM
TGI [42]: > 100 µM
TGI [43]: > 100 µM
TGI [58]: > 100 µM
TGI [45]: > 100 µM
TGI [46]: > 100 µM
TGI [47]: > 100 µM
TGI [48]: > 100 µM
TGI [49]: > 100 µM
TGI [50]: > 100 µM
TGI [51]: > 100 µM
TGI [53]: > 100 µM
TGI [54]: > 100 µM
TGI [55]: > 100 µM
TGI [56]: > 100 µM

NS(=O)(=O)c1ccc(NC(=S)/N=C/c2c(O)c3ccccc3oc2=O)cc1
TGI [1]: > 100 µM
TGI [2]: 64.1 µM
TGI [3]: > 100 µM
TGI [4]: > 100 µM
TGI [5]: > 100 µM
TGI [6]: 62.4 µM
TGI [7]: > 100 µM
TGI [8]: > 100 µM
TGI [9]: > 100 µM
TGI [10]: > 100 µM
TGI [11]: > 100 µM
TGI [12]: > 100 µM
TGI [13]: > 100 µM
TGI [57]: > 100 µM
TGI [14]: > 100 µM
TGI [15]: 68.1 µM
TGI [16]: 99.6 µM
TGI [17]: > 100 µM
TGI [18]: 97.1 µM
TGI [19]: > 100 µM
TGI [20]: > 100 µM
TGI [21]: > 100 µM
TGI [22]: > 100 µM
TGI [24]: > 100 µM
TGI [25]: 65 µM
TGI [26]: > 100 µM
TGI [27]: > 100 µM
TGI [28]: > 100 µM
TGI [29]: 61 µM
TGI [30]: > 100 µM
TGI [31]: > 100 µM
TGI [32]: 88.6 µM
TGI [33]: > 100 µM
TGI [34]: > 100 µM
TGI [35]: > 100 µM
TGI [36]: > 100 µM
TGI [37]: > 100 µM
TGI [38]: > 100 µM
TGI [39]: > 100 µM
TGI [40]: 80.9 µM
TGI [41]: > 100 µM
TGI [42]: > 100 µM
TGI [43]: > 100 µM
TGI [44]: > 100 µM
TGI [45]: 96.1 µM
TGI [46]: > 100 µM
TGI [47]: > 100 µM
TGI [48]: 85.5 µM
TGI [49]: 53.3 µM
TGI [50]: > 100 µM
TGI [51]: > 100 µM
TGI [52]: > 100 µM
TGI [53]: > 100 µM
TGI [54]: > 100 µM
TGI [55]: > 100 µM
TGI [56]: 87.6 µM
